{
  "source": "paper PMC11352039",
  "about": "“Isolation and Characterization of Antioxidant Peptides from Dairy Cow (Bos taurus) Placenta and Their Antioxidant Activities” (Antioxidants, 2024)",
  "key": {"[1]": {"conditions": "cited from earlier work; for DPPH free-radical scavenging IC50: AOPs from skipjack tuna protein extract", "description": "The virtual screening method, employing peptide affinity for Keap1 as a screening parameter, exclusively confirms the capability of CP1 to activate the Keap1/Nrf2 pathway. On the other hand, the chromatographic method, utilizing the free-radical scavenging rate as a screening metric, solely validates the ability of CP2 to scavenge free radicals. […] The chemical method for evaluating AOP antioxidant activity can be categorized into two main types: hydrogen atom transfer and electron transfer. In assays such as hydroxyl and DPPH radical scavenging, AOP transforms free radicals into anions via electron transfer. Moreover, in the lipid peroxidation inhibition assay, AOP hinders lipid peroxidation by releasing hydrogen atoms, thereby deactivating free radicals."}, "[2]": {"conditions": "cited from earlier work", "description": "AOP antioxidant activity is primarily assessed through chemical and cell modeling methods. The chemical method for evaluating AOP antioxidant activity can be categorized into two main types: hydrogen atom transfer and electron transfer. In assays such as hydroxyl and DPPH radical scavenging, AOP transforms free radicals into anions via electron transfer. Moreover, in the lipid peroxidation inhibition assay, AOP hinders lipid peroxidation by releasing hydrogen atoms, thereby deactivating free radicals."}, "RAW264.7 cells [3]": {"system": "RAW264.7 cells", "experiment": "Survival of normal cells (MTS)", "type": "cell-based", "conditions": "24 h", "description": "Pre-cultured RAW264.7 cells were allocated into groups C, CP1, and CP2. Group C received 100 μL of complete medium, while groups CP1 and CP2 were supplemented with 100 μL of complete medium containing CP1 and CP2, respectively, at final concentrations of 1.25, 2.5, 5, 10, 20, and 40 μg/mL. The cells were then incubated for 24 h before discarding the medium. Cell viability was assessed using the MTS method to identify non-toxic concentration ranges for subsequent experiments."}, "[4]": {"experiment": "Antioxidant stability under simulated digestion", "type": "in vitro ADME", "conditions": "simulated GI (gastrointestinal) digestion versus G digestion; not significant (p > 0.05)", "description": "We refer to Chai et al. and Gallego et al. methods to evaluate the antioxidant stability of AOPs at different temperatures, pH levels, and simulated digestion conditions."}, "RAW264.7 cells [5]": {"system": "RAW264.7 cells", "conditions": "MTS; for cell survival rate: mean ± SD", "description": "RAW264.7 cells were cultured in a 5% CO2 environment at 37 °C using a specific complete medium (DMEM (PM150210) + 10% FBS (164210-50) + 1%P/S (PB180120)) designed for RAW264.7 cells. Cells in the logarithmic growth phase were harvested and seeded into 96-well plates at a density of 1 × 10^5 cells/mL per well with 100 μL of inoculation volume. Subsequently, the plates were pre-cultured for 12 h at 37 °C in a 5% CO2 atmosphere, following which the medium was removed.\nThe pre-cultured RAW264.7 cells were then divided into control (C) and model (M) groups. Then, 100 μL of complete medium was added to group C, and 100 μL of complete medium containing concentrations of 250, 300, 350, 400, and 450 μmol/L H2O2 was added to group M. After continuing the incubation for 6 h, the medium was discarded. Cell viability was assessed using the MTS method. The optimal H2O2 concentration for inducing the oxidative stress model was determined when cell viability decreased to 50%, ensuring that the cells maintained a specific viability level while meeting the damage criteria."}},
  "note": "Like-named read-outs stand apart in the source and are kept apart here.",
  "data": [
    {"compound": "QAEP [AOP from skipjack tuna protein extract, literature]", "values": [
      {"measurement": "DPPH free-radical scavenging IC50", "setting": "[1]", "result": 1110, "unit": "µg/mL"}
    ]},
    {"compound": "LCGEC [tuna AOP, literature]", "values": [
      {"measurement": "DPPH radical scavenging rate", "setting": "[1]; 1 mg/mL, tuna AOP", "result": 16.83, "unit": "%"},
      {"measurement": "DPPH radical scavenging rate, IC50", "setting": "[1]; tuna AOP", "result": "exceeded 10 mg/mL"}
    ]},
    {"compound": "QEAE [AOP from skipjack tuna protein extract, literature]", "values": [
      {"measurement": "DPPH free-radical scavenging IC50", "setting": "[1]", "result": 1770, "unit": "µg/mL"}
    ]},
    {"compound": "EVGK [duck blood AOP, literature]", "values": [
      {"measurement": "DPPH radical scavenging rate", "setting": "[1]; 0.5 mg/mL, duck blood AOP", "result": 26.63, "unit": "%"},
      {"measurement": "transition metal chelation rate", "setting": "[2]; 0.5 mg/mL, duck blood AOP", "result": 16.35, "unit": "%"}
    ]},
    {"compound": "H-ANNGKQWAEVF-OH [CP1]", "values": [
      {"measurement": "cell viability of normal cells versus group C", "setting": "RAW264.7 cells [3]; RAW264.7, 40.00 μg/mL", "result": "significantly lower than that of group C"},
      {"measurement": "cell viability of normal cells versus group C", "setting": "RAW264.7 cells [3]; RAW264.7, 1.25 to 20.00 μg/mL", "result": "did not show a significant difference compared to group C"},
      {"measurement": "reduction of free-radical scavenging rate", "setting": "[4]", "result": 38.64, "unit": "%"}
    ]},
    {"compound": "YFLWP", "values": [
      {"measurement": "IC50 DPPH radical scavenging", "setting": "[1]; yellow croaker AOP", "result": 1590, "unit": "µg/mL"},
      {"measurement": "IC50 hydroxyl radical scavenging", "setting": "[2]; yellow croaker AOP", "result": 2470, "unit": "µg/mL"}
    ]},
    {"compound": "OO", "note": "[Peptide H2O2, hydrogen peroxide]", "values": [
      {"measurement": "cell activity", "setting": "RAW264.7 cells [5]; RAW264.7, 200 μmol/L H2O2, 6 h", "result": "exceeded 90%"},
      {"measurement": "cell survival rate", "setting": "RAW264.7 cells [5]; RAW264.7, 250 μmol/L H2O2, 6 h", "result": "83.51 ± 6.15", "unit": "%"},
      {"measurement": "cell survival rate", "setting": "RAW264.7 cells [5]; RAW264.7, 300 μmol/L H2O2, 6 h", "result": "79.06 ± 3.21", "unit": "%"},
      {"measurement": "cell survival rate", "setting": "RAW264.7 cells [5]; RAW264.7, 350 μmol/L H2O2, 6 h", "result": "64.73 ± 0.99", "unit": "%"},
      {"measurement": "cell survival rate", "setting": "RAW264.7 cells [5]; RAW264.7, 400 μmol/L H2O2, 6 h", "result": "48.68 ± 5.48", "unit": "%"},
      {"measurement": "cell survival rate", "setting": "RAW264.7 cells [5]; RAW264.7, 450 μmol/L H2O2, 6 h", "result": "26.10 ± 1.65", "unit": "%"}
    ]},
    {"compound": "H-QPGLPGPAG-OH [CP2]", "values": [
      {"measurement": "cell viability of normal cells versus group C", "setting": "RAW264.7 cells [3]; RAW264.7, 40.00 μg/mL", "result": "significantly lower than that of group C"},
      {"measurement": "cell viability of normal cells versus group C", "setting": "RAW264.7 cells [3]; RAW264.7, 1.25 to 20.00 μg/mL", "result": "did not show a significant difference compared to group C"},
      {"measurement": "reduction of free-radical scavenging rate", "setting": "[4]", "result": 34.01, "unit": "%"}
    ]},
    {"compound": "YGPEP [sheepskin AOP, literature]", "values": [
      {"measurement": "IC50 lipid peroxidation inhibition rate", "setting": "[2]; sheepskin AOP", "result": 3940, "unit": "µg/mL"}
    ]}
  ]
}
